Tested on: Eschericia coli (E. coli) strain ATCC25922
Test: Standard microdilution assay, MIC against E. coli ATCC25922
Assay type: cell-based
Settings: Escherichia coli; E. coli strain ATCC25922, standard microdilution assay; cutoff 16 micrograms/mL; read-out: MIC E. Coli
Procedure, shortened: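 Scoring as + or − used a 16 micrograms/mL cutoff on minimum inhibitory concentrations. These came from CLSI-standard microdilution, quality-controlled with reference strains tested in the same run.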

Structure (SMILES)	MIC
C[C@H](N)CCCc1cc(OC(F)(F)F)c(F)c(-c2cc3cn(-c4ccc([C@H](C)NCC[C@@H](CCc5ccccc5)NC(=N)N)cc4)c(=O)nc3[nH]2)c1 [Compound 259]	< 16 µg/mL
C[C@H](N)CCCc1cc(Cl)c(F)c(-c2cc3cn(-c4ccc(CNCCC5(N)CNC5)cc4)c(=O)nc3[nH]2)c1 [Compound 189]	< 16 µg/mL
C[C@H](N)CCCc1cc(Cl)c(F)c(-c2cc3cn(-c4ccc([C@@H](N)CCCCNC(=N)N)cc4)c(=O)nc3[nH]2)c1 [Compound 118]	< 16 µg/mL
CC[C@@H](CCNCc1ccc(-n2cc3cc(-c4cc(CCC[C@H](C)N)cc(Cl)c4F)[nH]c3nc2=O)cc1)NC(=N)N [Compound 183]	< 16 µg/mL
COc1ccc(Cn2cc(CNCc3ccc(-n4cc5cc(-c6cc(CCC[C@H](C)N)cc(Cl)c6F)[nH]c5nc4=O)cc3)nn2)cc1 [Compound 120]	> 16 µg/mL
C[C@H](N)CCCc1cc(Cl)c(F)c(-c2cc3cn(-c4ccc(CNCc5ccc(=O)[nH]c5)cc4)c(=O)nc3[nH]2)c1 [Compound 149]	> 16 µg/mL
C[C@H](N)CCCc1cc(Cl)c(F)c(-c2cc3cn(-c4ccc([C@H](C)NCC[C@H](CCN)NC(=N)N)cc4)c(=O)nc3[nH]2)c1 [Compound 312]	< 16 µg/mL
CC[C@H](N)COCc1cc(SC(F)(F)F)cc(-c2cc3cn(-c4ccc([C@H](C)NCCCNC(=N)N)cc4)c(=O)nc3[nH]2)c1 [Compound 64]	< 16 µg/mL
C[C@H](N)CCCc1cc(Cl)c(F)c(-c2cc3cn(-c4ccc(CNCC[C@@H](N)CCO)cc4)c(=O)nc3[nH]2)c1 [Compound 184]	< 16 µg/mL
CC(C)[C@H](N)CCNCc1ccc(-n2cc3cc(-c4cc(CCC[C@H](C)N)cc(Cl)c4F)[nH]c3nc2=O)cc1 [Compound 155]	< 16 µg/mL
C[C@H](NCCCNC(=N)N)c1ccc(-n2cc3cc(-c4cc(CCC[C@@H]5COC(=O)N5)cc(Cl)c4F)[nH]c3nc2=O)cc1 [Compound 296]	> 16 µg/mL
C[C@H](N)CCCc1cc(Cl)c(F)c(-c2cc3cn(-c4ccc(C[C@H](N)CCCNC(=N)N)cc4)c(=O)nc3[nH]2)c1 [Compound 230]	< 16 µg/mL
C[C@H](NCCCNC(=N)N)c1ccc(-n2cc3cc(-c4cc(CCC[C@@H](N)COC(=O)NCc5ccccc5)cc(Cl)c4F)[nH]c3nc2=O)cc1 [Compound 306]	< 16 µg/mL
C[C@H](N)CCCc1cc(Cl)c(F)c(-c2cc3cn(-c4ccc([C@H](Cc5c[nH]nn5)NCCCNC(=N)N)cc4)c(=O)nc3[nH]2)c1 [Compound 46]	< 16 µg/mL
C[C@H](N)CCCc1cc(Cl)c(F)c(-c2cc3cn(-c4ccc([C@@H](CCc5ccncc5)NCCCNC(=N)N)cc4)c(=O)nc3[nH]2)c1 [Compound 69]	< 16 µg/mL
C[C@H](N)CCCc1cc(Cl)c(F)c(-c2cc3cn(-c4ccc(CN[C@H](C)CCNC(=N)N)cc4)c(=O)nc3[nH]2)c1 [Compound 209]	< 16 µg/mL
C[C@H](N)CCCc1cc(SC(F)(F)F)cc(-c2cc3cn(-c4ccc([C@H](CCO)NCCCNC(=N)N)cc4)c(=O)nc3[nH]2)c1 [Compound 24]	< 16 µg/mL
C[C@H](N)CCCc1cc(SC(F)(F)F)cc(-c2cc3cn(-c4ccc(CNCc5c[nH]nn5)cc4)c(=O)nc3[nH]2)c1 [Compound 121]	> 16 µg/mL
O=C(O)CNCc1ccc(-n2cc3cc[nH]c3nc2=O)cc1 [Compound 114]	> 16 µg/mL

Structure (SMILES)	MIC
N=C(N)N1CCN(Cc2ccc(-n3cc4cc(-c5ccc(C(NC6CN(C(=N)N)C6)C(F)(F)F)cc5)[nH]c4nc3=O)cc2)CC1 (stereo not drawn) [Compound 54]	< 16 µg/mL
C[C@H](N)CCCc1cc(Cl)c(F)c(-c2cc3cn(-c4ccc([C@H](C)NCC[C@@H](CCO)NC(=N)N)cc4)c(=O)nc3[nH]2)c1 [Compound 247]	< 16 µg/mL
C[C@H](N)CCCc1cc(-c2cc3cn(-c4ccc([C@H](CCF)NCCCNC(=N)N)cc4)c(=O)nc3[nH]2)cc(C(F)(F)F)c1 [Compound 73]	< 16 µg/mL
C[C@H](N)CCCc1cc(SC(F)(F)F)cc(-c2cc3cn(-c4ccc(CNCCC(=O)O)cc4)c(=O)nc3[nH]2)c1 [Compound 140]	> 16 µg/mL
C[C@H](N)CCCc1cc(-c2cc3cn(-c4ccc([C@@H](NCCCNC(=N)N)C(=O)N5CCNCC5)cc4)c(=O)nc3[nH]2)cc(C(F)(F)F)c1 [Compound 13]	< 16 µg/mL
C[C@H](N)CCCc1cc(OC(F)(F)F)c(F)c(-c2cc3cn(-c4ccc(CNCC[C@H](CN)NC(=N)N)cc4)c(=O)nc3[nH]2)c1 [Compound 311]	< 16 µg/mL
C[C@H](N)CCCc1cc(SC(F)(F)F)cc(-c2cc3cn(-c4ccc(CNCc5ccncc5)cc4)c(=O)nc3[nH]2)c1 [Compound 128]	> 16 µg/mL
C=CC[C@@H](N)CCNCc1ccc(-n2cc3cc(-c4cc(CCC[C@H](C)N)cc(Cl)c4F)[nH]c3nc2=O)cc1 [Compound 206]	< 16 µg/mL
C[C@H](N)CCCc1cc(Cl)c(F)c(-c2cc3cn(-c4ccc([C@@H](N)CCN(C(=O)c5ccccc5)c5nccs5)cc4)c(=O)nc3[nH]2)c1 [Compound 161]	> 16 µg/mL
CC(=O)Oc1ccccc1C(=O)OC[C@H](N)CCCc1cc(Cl)c(F)c(-c2cc3cn(-c4ccc([C@H](C)NCCCNC(=N)N)cc4)c(=O)nc3[nH]2)c1 [Compound 316]	< 16 µg/mL
C[C@H](N)CCCc1cc(OC(F)(F)F)c(F)c(-c2cc3cn(-c4ccc([C@H](C)NCC[C@@H](CCCO)NC(=N)N)cc4)c(=O)nc3[nH]2)c1 [Compound 240]	< 16 µg/mL
C[C@H](N)CCCc1cc(Cl)c(F)c(-c2cc3cn(-c4ccc(CNCC[C@@H](CO)NC(=N)N)cc4)c(=O)nc3[nH]2)c1 [Compound 191]	< 16 µg/mL
C[C@H](N)CCCc1cc(Cl)c(F)c(-c2cc3cn(-c4ccc(CNCC[C@@H](N)CO)cc4)c(=O)nc3[nH]2)c1 [Compound 167]	< 16 µg/mL
COc1ccc(Cn2cc(C[C@H](NCCCNC(=N)N)c3ccc(-n4cc5cc(-c6cc(CCC[C@H](C)N)cc(C(F)(F)F)c6)[nH]c5nc4=O)cc3)nn2)cc1 [Compound 42]	< 16 µg/mL
C[C@H](N)CCCc1cc(SC(F)(F)F)cc(-c2cc3cn(-c4ccc([C@@H](NCCCNC(=N)N)c5ccc(S(C)(=O)=O)cc5)cc4)c(=O)nc3[nH]2)c1 [Compound 40]	< 16 µg/mL
CC(=O)N[C@@H](C)CCCc1cc(Cl)c(F)c(-c2cc3cn(-c4ccc([C@H](C)NCCCNC(=N)N)cc4)c(=O)nc3[nH]2)c1 [Compound 76]	> 16 µg/mL
C[C@H](N)CCCc1cc(OC(F)(F)F)c(F)c(-c2cc3cn(-c4ccc([C@H](C)NCC[C@H](C)N)cc4)c(=O)nc3[nH]2)c1 [Compound 223]	< 16 µg/mL
COc1ccc(Cn2cc(CNCc3ccc(-n4cc5cc[nH]c5nc4=O)cc3)nn2)cc1 [Compound 131]	> 16 µg/mL
C[C@H](N)CCCc1cc(Cl)c(F)c(-c2cc3cn(-c4ccc([C@H](CC5=CCCN(C)C5)NCCCNC(=N)N)cc4)c(=O)nc3[nH]2)c1 [Compound 105]	< 16 µg/mL

Structure (SMILES)	MIC
C[C@H](N)CCCc1cc(OC(F)(F)F)c(F)c(-c2cc3cn(-c4ccc([C@H](C)NCC[C@H](C)NC(=N)N)cc4)c(=O)nc3[nH]2)c1 [Compound 224]	< 16 µg/mL
C[C@H](N)CCCc1cc(SC(F)(F)F)cc(-c2cc3cn(-c4ccc([C@@H](CCc5ccncc5)NCCCNC(=N)N)cc4)c(=O)nc3[nH]2)c1 [Compound 86]	< 16 µg/mL
COc1ccc([C@@H](c2ccc(SC)cc2)c2ccc(-n3cc4cc(-c5cc(CCC[C@H](C)N)cc(SC(F)(F)F)c5)[nH]c4nc3=O)cc2)cc1 [Compound 9]	> 16 µg/mL
C[C@H](N)CCCc1cc(Cl)c(F)c(-c2cc3cn(-c4ccc([C@@H](N)CCNc5nccs5)cc4)c(=O)nc3[nH]2)c1 [Compound 153]	> 16 µg/mL
CCc1c(F)c(CCC[C@H](C)N)cc(-c2cc3cn(-c4ccc([C@H](C)NCCCN)cc4)c(=O)nc3[nH]2)c1F [Compound 217]	< 16 µg/mL
C[C@H](N)CCCc1cc(SC(F)(F)F)cc(-c2cc3cn(-c4ccc([C@H](Cn5ccnn5)NCCCNC(=N)N)cc4)c(=O)nc3[nH]2)c1 [Compound 88]	< 16 µg/mL
C[C@H](N)CCCc1cc(SC(F)(F)F)cc(-c2cc3cn(-c4ccc([C@@H](N)CCNc5nccs5)cc4)c(=O)nc3[nH]2)c1 [Compound 157]	> 16 µg/mL
C[C@H](N)CCCc1cc(Cl)c(F)c(-c2cc3cn(-c4ccc([C@@H]5CC[C@@H](CCNC(=N)N)N5)cc4)c(=O)nc3[nH]2)c1 [Compound 285]	< 16 µg/mL
C[C@H](N)CCCc1cc(OC(F)(F)F)c(F)c(-c2cc3cn(-c4ccc([C@H](C)N[C@H](C)CCNC(=N)N)cc4)c(=O)nc3[nH]2)c1 [Compound 233]	< 16 µg/mL
CC(N)CCNCc1ccc(-n2cc3cc(-c4cc(CCC[C@H](C)N)cc(Cl)c4F)[nH]c3nc2=O)cc1 (stereo partly drawn) [Compound 160]	< 16 µg/mL
C[C@H](N)CCCc1cc(SC(F)(F)F)cc(-c2cc3cn(-c4ccc([C@@H](CO)NCCCNC(=N)N)cc4)c(=O)nc3[nH]2)c1 [Compound 45]	< 16 µg/mL
C[C@H](N)CCCc1cc(Cl)c(F)c(-c2cc3cn(-c4ccc(CNCC[C@@H](C)NC(=N)N)cc4)c(=O)nc3[nH]2)c1 [Compound 188]	< 16 µg/mL
C[C@H](N)CCCc1cc(Cl)c(F)c(-c2cc3cn(-c4ccc([C@H](C)NCC[C@@H](CC#N)NC(=N)N)cc4)c(=O)nc3[nH]2)c1 [Compound 297]	< 16 µg/mL
N=C(N)NCCCNCc1ccc(-n2cc3cc(-c4ccc(/C=N/OCCNC(=N)N)cc4)[nH]c3nc2=O)cc1 [Compound 53]	< 16 µg/mL
C[C@H](N)CCCc1cc(OC(F)(F)F)c(F)c(-c2cc3cn(-c4ccc([C@H](C)NCC[C@H](CCCO)NC(=N)N)cc4)c(=O)nc3[nH]2)c1 [Compound 276]	< 16 µg/mL
C[C@H](N)CCCc1cc(-c2cc3cn(-c4ccc([C@H](C)NCC[C@@H](C)N)cc4)c(=O)nc3[nH]2)cc(C(F)(F)F)c1 [Compound 199]	< 16 µg/mL
C[C@H](NCCCNC(=N)N)c1ccc(-n2cc3cc(-c4cc(SC(F)(F)F)cc([C@H](O)CCC(N)C(O)CO)c4)[nH]c3nc2=O)cc1 (stereo partly drawn) [Compound 134]	< 16 µg/mL
CCOC(=O)N[C@@H](C)CCCc1cc(Cl)c(F)c(-c2cc3cn(-c4ccc([C@H](C)NCCCNC(=N)N)cc4)c(=O)nc3[nH]2)c1 [Compound 71]	< 16 µg/mL
COCC[C@H](NCCCNC(=N)N)c1ccc(-n2cc3cc(-c4cc(CCC[C@H](C)N)cc(SC(F)(F)F)c4)[nH]c3nc2=O)cc1 [Compound 30]	< 16 µg/mL

Source: patent US10815238B2, “Antimicrobial compounds and methods of making and using the same” (BIOVERSYS AG, priority 2013, dated 2020)
